According to ChEMBL document CHEMBL1129114, “Bioactive hydroxyethylene dipeptide isosteres with hydrophobic (P3-P1)-moieties. A novel strategy towards small non-peptide renin inhibitors” (Bioorg Med Chem Lett, 1996):
pIC50: −log10 of the molar value.

Target: T1, Renin (Homo sapiens, UniProt P00797)
T1 sequence (P00797 whole entry): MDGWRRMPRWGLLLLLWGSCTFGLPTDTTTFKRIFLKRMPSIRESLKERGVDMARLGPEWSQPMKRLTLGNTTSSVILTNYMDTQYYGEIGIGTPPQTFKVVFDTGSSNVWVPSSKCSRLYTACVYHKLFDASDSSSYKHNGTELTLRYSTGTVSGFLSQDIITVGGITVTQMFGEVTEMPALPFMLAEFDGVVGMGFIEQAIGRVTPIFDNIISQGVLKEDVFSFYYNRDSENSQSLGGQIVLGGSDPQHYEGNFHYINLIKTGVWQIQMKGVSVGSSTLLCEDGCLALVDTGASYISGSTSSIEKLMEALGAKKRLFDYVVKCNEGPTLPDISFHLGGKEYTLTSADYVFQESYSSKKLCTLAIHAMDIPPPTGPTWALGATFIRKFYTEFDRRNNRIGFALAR
Assay: In vitro binding affinity was tested against purified human renin at pH 7.2

SMILES: CCCCNC(=O)[C@H](C)C[C@H](O)[C@@H](N)CC(C)(C)CCc1cccc2ccccc12
- pIC50: 6.15

SMILES: CCCCNC(=O)[C@H](C)C[C@H](O)[C@@H](N)CC1CCCCC1
- pIC50: 4.52

SMILES: CCCCNC(=O)[C@H](C)C[C@H](O)[C@@H](N)CC(C)C
- pIC50: < 4.00

SMILES: CCCCNC(=O)[C@H](C)C[C@H](O)[C@@H](N)Cc1cccc(CCCC(C)(C)C)c1
- pIC50: 4.89

SMILES: CCCCNC(=O)[C@H](C)C[C@H](O)[C@@H](N)CC1CCCC(CCCC(C)(C)C)C1 (stereo partly specified)
- pIC50: 6.10

SMILES: CCCCNC(=O)[C@H](C)C[C@H](O)[C@@H](N)CC(C)(C)CCc1ccc2ccccc2c1
- pIC50: 5.52

SMILES: CCCCNC(=O)[C@H](C)C[C@H](O)[C@@H](N)CC(C)(C)CCc1cccc(CO)c1
- pIC50: 4.24

SMILES: CCCCNC(=O)[C@H](C)C[C@H](O)[C@@H](N)C[C@@H]1CCC[C@H](CCCC(C)(C)C)C1
- pIC50: 5.54

SMILES: CCCCNC(=O)[C@H](C)C[C@H](O)[C@@H](N)Cc1ccc(OCc2ccccc2)cc1
- pIC50: 4.49

SMILES: CCCCNC(=O)[C@H](C)C[C@H](O)[C@@H](N)CC(C)(C)CCCc1ccc2ccccc2c1
- pIC50: 5.43

SMILES: CCCCNC(=O)[C@H](C)C[C@H](O)[C@@H](N)C[C@H]1CC[C@H](CCCC(C)(C)C)CC1
- pIC50: 5.37

SMILES: CCCCNC(=O)[C@H](C)C[C@H](O)[C@@H](N)CC(C)(C)CCCc1cccc2ccccc12
- pIC50: 5.68

SMILES: CCCCNC(=O)[C@H](C)C[C@H](O)[C@@H](N)CC(CC)(CC)CCc1cccc2ccccc12
- pIC50: 5.57

SMILES: CCCCNC(=O)[C@H](C)C[C@H](O)[C@@H](N)CC(C)(C)CCc1ccc(CO)c2ccccc12
- pIC50: 5.00

SMILES: CCCCNC(=O)[C@H](C)C[C@H](O)[C@@H](N)CC(C)(C)CCc1ccc(CO)cc1
- pIC50: 4.10

SMILES: CCCCNC(=O)[C@H](C)C[C@H](O)[C@@H](N)C[C@@H]1CCC[C@@H](CCCC(C)(C)C)C1
- pIC50: 6.52
